Reference: patent publication US20240368092A1, “2,4-Dihydro-3H-1,2,4-Triazol-3-One P2X7 Antagonists” (Breye Therapeutics ApS, priority 2021, published 2024)

What was measured:
Format in all cases: cell-based
mouseP2X7 = target: T1, mouseP2X7 (Mus musculus, UniProt Q9Z1M0); assay: P2X7 channel calcium-influx assay (Fluo-8, FLIPR TETRA), mouse P2X7; conditions: HEK-293 cells stably transfected with P2X7; Bz-ATP at EC80; low divalent cation buffer; read-out: mouseP2X7 (activity range)
T1 construct: expressed in transfected cells; host or cells: HEK-293
T1 sequence (Q9Z1M0 1-595): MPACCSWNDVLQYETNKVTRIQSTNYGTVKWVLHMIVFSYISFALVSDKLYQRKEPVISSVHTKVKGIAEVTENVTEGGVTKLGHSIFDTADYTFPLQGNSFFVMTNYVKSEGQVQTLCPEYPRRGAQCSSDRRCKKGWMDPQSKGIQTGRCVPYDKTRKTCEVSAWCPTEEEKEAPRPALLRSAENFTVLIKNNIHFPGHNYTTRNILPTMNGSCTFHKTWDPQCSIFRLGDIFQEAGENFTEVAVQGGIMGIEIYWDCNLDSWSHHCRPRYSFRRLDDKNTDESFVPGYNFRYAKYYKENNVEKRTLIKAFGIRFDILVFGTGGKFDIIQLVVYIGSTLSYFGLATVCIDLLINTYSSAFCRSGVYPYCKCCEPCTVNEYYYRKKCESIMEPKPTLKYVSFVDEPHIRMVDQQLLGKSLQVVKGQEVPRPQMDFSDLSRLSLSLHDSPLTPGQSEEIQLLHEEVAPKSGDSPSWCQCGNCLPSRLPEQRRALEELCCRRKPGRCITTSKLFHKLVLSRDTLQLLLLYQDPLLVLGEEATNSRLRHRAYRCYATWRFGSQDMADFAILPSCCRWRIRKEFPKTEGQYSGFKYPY
Procedure, shortened: (§1)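 HEK-293 cells stably expressing the respective species' P2X7, Fluo-8 NW loaded 1 h at RT in low divalent buffer (0.3 mM Ca2+, 0 mM Mg2+). Compound preincubated 5 min, then Bz-ATP at EC80; FLIPR calcium influx over 3 min. IC50 from % inhibition relative to reference antagonist A438079, reported as potency bins.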

ratP2X7 = target: T2, ratP2X7 (Rattus norvegicus, UniProt Q64663); assay: P2X7 channel calcium-influx assay (Fluo-8, FLIPR TETRA), rat P2X7; conditions: HEK-293 cells stably transfected with P2X7; Bz-ATP at EC80; low divalent cation buffer; read-out: ratP2X7 (activity range)
T2 construct: expressed in transfected cells; host or cells: HEK-293
T2 sequence (Q64663 1-595): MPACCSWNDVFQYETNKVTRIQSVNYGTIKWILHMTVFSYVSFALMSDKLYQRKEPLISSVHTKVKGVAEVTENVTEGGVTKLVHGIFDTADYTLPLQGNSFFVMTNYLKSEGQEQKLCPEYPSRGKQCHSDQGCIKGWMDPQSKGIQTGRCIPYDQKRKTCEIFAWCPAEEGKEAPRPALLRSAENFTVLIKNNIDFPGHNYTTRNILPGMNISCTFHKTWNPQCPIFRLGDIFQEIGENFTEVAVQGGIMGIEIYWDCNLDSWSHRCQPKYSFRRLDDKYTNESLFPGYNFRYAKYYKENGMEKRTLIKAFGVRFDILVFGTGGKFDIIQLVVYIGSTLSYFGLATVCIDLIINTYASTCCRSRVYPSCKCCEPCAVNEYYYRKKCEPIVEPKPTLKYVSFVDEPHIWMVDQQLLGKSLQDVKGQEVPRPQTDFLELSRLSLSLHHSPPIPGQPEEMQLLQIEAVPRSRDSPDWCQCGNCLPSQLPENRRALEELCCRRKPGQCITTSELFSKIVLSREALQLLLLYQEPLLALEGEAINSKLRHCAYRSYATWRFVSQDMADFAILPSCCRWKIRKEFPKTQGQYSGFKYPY
Procedure, shortened: as §1

humanP2X7 = target: T3, humanP2X7 (Homo sapiens, UniProt Q99572); assay: P2X7 channel calcium-influx assay (Fluo-8, FLIPR TETRA), human P2X7; conditions: HEK-293 cells stably transfected with P2X7; Bz-ATP at EC80; low divalent cation buffer; read-out: humanP2X7 (activity range)
T3 construct: expressed in transfected cells; host or cells: HEK-293
T3 sequence (Q99572 1-595): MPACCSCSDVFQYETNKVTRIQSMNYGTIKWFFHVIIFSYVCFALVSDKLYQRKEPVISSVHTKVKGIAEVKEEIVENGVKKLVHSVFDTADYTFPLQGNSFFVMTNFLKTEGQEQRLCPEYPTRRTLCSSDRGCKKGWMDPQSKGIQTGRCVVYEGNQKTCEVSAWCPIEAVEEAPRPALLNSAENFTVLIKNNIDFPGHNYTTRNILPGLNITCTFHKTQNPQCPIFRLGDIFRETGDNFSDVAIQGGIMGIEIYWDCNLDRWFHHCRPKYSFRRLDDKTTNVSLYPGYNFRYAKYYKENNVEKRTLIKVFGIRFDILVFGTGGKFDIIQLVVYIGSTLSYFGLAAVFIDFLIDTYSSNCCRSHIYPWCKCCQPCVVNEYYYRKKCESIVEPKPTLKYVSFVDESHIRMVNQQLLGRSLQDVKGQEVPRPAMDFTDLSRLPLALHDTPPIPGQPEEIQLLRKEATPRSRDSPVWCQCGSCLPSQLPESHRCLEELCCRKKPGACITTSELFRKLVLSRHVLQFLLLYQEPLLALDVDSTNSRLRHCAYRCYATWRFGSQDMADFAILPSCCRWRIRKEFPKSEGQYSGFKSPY
Procedure, shortened: as §1

human P2X7 channel = target: T4, human P2X7 channel (Homo sapiens, UniProt Q99572); assay: human P2X7 channel assay by automated patch-clamp (QPatch 16X); conditions: HEK-293 cells expressing P2X7; current evoked by 100 microM BzATP; whole-cell, held at -80 mV; read-out: human Q-Patch (activity range)
T4 construct: expressed in transfected cells; host or cells: HEK-293
T4 sequence (Q99572 1-595): T3 sequence (Q99572 1-595)
Procedure, shortened: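 Whole-cell patch clamp on HEK-293 cells expressing P2X7, room temperature, held at −80 mV, CsF internal and NaCl external (pH 7.4). Currents evoked by 100 microM BzATP, four controls then with compound at 1, 10, 100 and 1000 nM; peak inward current normalized, IC50 from dose-response fit, reported as potency bins.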

Question: For `Cn1nc(Cc2c(F)cccc2Cl)n(CCO)c1=O` [Example 53, 5-(2-chloro-6-fluorobenzyl)-4-(2-hydroxyethyl)-2-methyl-2,4-dihydro-3H-1,2,4-triazol-3-one], which IC50 (mouseP2X7) is on record?
Answer: 10 to 30 µM

Question: What about the IC50 (ratP2X7) of the same compound?
Answer: 10 to 30 µM

Question: And the IC50 (humanP2X7)?
Answer: 10 to 30 µM

Question: What about the IC50 (human P2X7 channel) of the same compound?
Answer: 1 to 10 µM

Question: Which results are given for `Cn1nc(Cc2ccccc2Cl)n(CC2CCCCCC2)c1=O` [Example 55, 5-[(2-chlorophenyl)methyl]-4-(cycloheptylmethyl)-2-methyl-2,4-dihydro-3H-1,2,4-triazol-3-one]?
Answer: IC50 (mouseP2X7): 1 to 10 µM; IC50 (ratP2X7): < 0.2 µM; IC50 (humanP2X7): 0.2 to 1 µM; IC50 (human P2X7 channel): 0.1 to 1 µM

Question: `Cn1nc(Cc2c(F)cccc2Cl)n(CC2(C)CCCCCC2)c1=O` [Example 56, 5-[(2-chloro-6-fluorophenyl)methyl]-2-methyl-4-[(1-methylcycloheptyl)methyl]-2,4-dihydro-3H-1,2,4-triazol-3-one] was tested. Which IC50 (mouseP2X7) did it give?
Answer: 10 to 30 µM

Question: And the IC50 (ratP2X7)?
Answer: 1 to 10 µM

Question: And the IC50 (humanP2X7)?
Answer: 1 to 10 µM

Question: And the IC50 (human P2X7 channel)?
Answer: 1 to 10 µM

Question: What does the source list for `O=c1n(CCC(F)(F)F)nc(Cc2c(F)cccc2Cl)n1CC1CCC(F)(F)CC1` [Example 57, 5-[(2-chloro-6-fluorophenyl)methyl]-4-[(4,4-difluorocyclohexyl)methyl]-2-(3,3,3-trifluoropropyl)-2,4-dihydro-3H-1,2,4-triazol-3-one]?
Answer: IC50 (mouseP2X7): < 0.2 µM; IC50 (ratP2X7): < 0.2 µM; IC50 (humanP2X7): < 0.2 µM; IC50 (human P2X7 channel): 0.01 to 0.1 µM

Question: For `O=c1n(CC(F)F)nc(Cc2c(F)cccc2Cl)n1CC1CCC(F)(F)CC1` [Example 58, 5-[(2-chloro-6-fluorophenyl)methyl]-4-[(4,4-difluorocyclohexyl)methyl]-2-(2,2-difluoroethyl)-2,4-dihydro-3H-1,2,4-triazol-3-one], which IC50 (mouseP2X7) is on record?
Answer: < 0.2 µM

Question: And the IC50 (ratP2X7)?
Answer: < 0.2 µM

Question: And the IC50 (humanP2X7)?
Answer: < 0.2 µM

Question: And the IC50 (human P2X7 channel)?
Answer: 0.01 to 0.1 µM

Question: How did the IC50 (mouseP2X7) turn out when `CCn1nc(CC2CCCCCC2)n(Cc2c(F)cccc2Cl)c1=O` [Example 60, 4-[(2-chloro-6-fluorophenyl)methyl]-5-(cycloheptylmethyl)-2-ethyl-2,4-dihydro-3H-1,2,4-triazol-3-one] was run?
Answer: 1 to 10 µM

Question: And the IC50 (ratP2X7)?
Answer: < 0.2 µM

Question: And the IC50 (humanP2X7)?
Answer: 0.2 to 1 µM

Question: And the IC50 (human P2X7 channel)?
Answer: 0.1 to 1 µM

Question: Which IC50 (mouseP2X7) does the source give for `O=c1n(CC(F)(F)F)nc(CC2CCCCCC2)n1Cc1c(F)cccc1Cl` [Example 61, 4-[(2-chloro-6-fluorophenyl)methyl]-5-(cycloheptylmethyl)-2-(2,2,2-trifluoroethyl)-2,4-dihydro-3H-1,2,4-triazol-3-one] here?
Answer: 1 to 10 µM

Question: What about the IC50 (ratP2X7) of the same compound?
Answer: < 0.2 µM

Question: What about the IC50 (humanP2X7) of the same compound?
Answer: 0.2 to 1 µM

Question: What about the IC50 (human P2X7 channel) of the same compound?
Answer: 0.1 to 1 µM

Question: How did the IC50 (mouseP2X7) turn out when `O=c1n(CC(F)(F)F)nc(Cc2ccccc2Cl)n1CC1CCC(F)(F)CC1` [Example 62, 5-[(2-chlorophenyl)methyl]-4-[(4,4-difluorocyclohexyl)methyl]-2-(2,2,2-trifluoroethyl)-2,4-dihydro-3H-1,2,4-triazol-3-one] was run?
Answer: < 0.2 µM

Question: And the IC50 (ratP2X7)?
Answer: < 0.2 µM

Question: And the IC50 (humanP2X7)?
Answer: < 0.2 µM

Question: What about the IC50 (human P2X7 channel) of the same compound?
Answer: < 0.01 µM

Question: For `CCn1nc(Cc2ccccc2Cl)n(CC2CCC(F)(F)CC2)c1=O` [Example 63, 5-[(2-chlorophenyl)methyl]-4-[(4,4-difluorocyclohexyl)methyl]-2-ethyl-2,4-dihydro-3H-1,2,4-triazol-3-one], which IC50 (mouseP2X7) is on record?
Answer: 0.2 to 1 µM

Question: What about the IC50 (ratP2X7) of the same compound?
Answer: < 0.2 µM

Question: And the IC50 (humanP2X7)?
Answer: < 0.2 µM

Question: And the IC50 (human P2X7 channel)?
Answer: 0.01 to 0.1 µM

Question: For `CCn1nc(Cc2c(F)cccc2Cl)n(CC2CCC(F)(F)C2)c1=O` (centres unmarked) [Example 65, 5-[(2-chloro-6-fluorophenyl)methyl]-4-[(3,3-difluorocyclopentyl)methyl]-2-ethyl-2,4-dihydro-3H-1,2,4-triazol-3-one], which IC50 (mouseP2X7) is on record?
Answer: 10 to 30 µM

Question: And the IC50 (ratP2X7)?
Answer: 0.2 to 1 µM

Question: And the IC50 (humanP2X7)?
Answer: 1 to 10 µM

Question: And the IC50 (human P2X7 channel)?
Answer: 1 to 10 µM

Question: Which IC50 (mouseP2X7) does the source give for `O=c1n(CC2CC2)nc(Cc2c(F)cccc2Cl)n1CC1CCC(F)(F)C1` (centres unmarked) [Example 66, 5-[(2-chloro-6-fluorophenyl)methyl]-2-(cyclopropylmethyl)-4-[(3,3-difluorocyclopentyl)methyl]-2,4-dihydro-3H-1,2,4-triazol-3-one] here?
Answer: 1 to 10 µM

Question: What about the IC50 (ratP2X7) of the same compound?
Answer: < 0.2 µM

Question: What about the IC50 (humanP2X7) of the same compound?
Answer: 0.2 to 1 µM

Question: And the IC50 (human P2X7 channel)?
Answer: 0.1 to 1 µM
